Source: ChEMBL document CHEMBL4476864, “Azapeptides as cd36 binding compounds” (2013)
The source made the active and inactive calls. The calls are words filed in the database; no cut-off is given here. Starred links: 1 amine or outer side, 2 acyl side, 3 side chain; linkers in the order of their positions; H or OH if unused. Non-standard residues stand in square brackets, D forms with d. Residues, ends and D or L forms follow the SMILES beside them. azaTyr = O=C(N(Cc1ccc(O)cc1)N[*:1])[*:2]

What was measured:
[1] = test system: Aorta; test: Inhibition of vascular sprouting in CD36+/+ C57BL/6 mouse aortic rings exposed on day 4 to 6; assay type: functional, tissue-based
[2] = test system: Aorta; test: Inhibition of vascular sprouting in CD36-/- C57BL/6 mouse aortic rings exposed on day 4 to 6; assay type: functional, tissue-based
[3] = test system: Mus musculus; test: Inhibition of choroidal neovascularization in CD36+/+ C57BL/6 mouse model of FITC-conjugated dextran infusion following laser-induced posterior retinal injury administered in to vitreous tissue; assay type: functional
[4] = test system: Mus musculus; test: Inhibition of choroidal neovascularization in CD36-/- C57BL/6 mouse model of FITC-conjugated dextran infusion following laser-induced posterior retinal injury administered in to vitreous tissue; assay type: functional, organism-based

SMILES: C[C@H](NC(=O)[C@@H](Cc1c[nH]c2ccccc12)NC(=O)[C@@H](N)Cc1cnc[nH]1)C(=O)NN(Cc1ccc(O)cc1)C(=O)N[C@H](Cc1ccccc1)C(=O)N[C@@H](CCCCN)C(N)=O (H-H[dW]A[azaTyr][dF]K-NH2)
- inhibition [1]: Dose-dependent effect
- inhibition [2]: inactive
- inhibition (INH) [3]: >50%
- inhibition [4]: inactive
